Where “and” joins values, the source holds several entries; their conditions need not be identical. Equal entries are not always repeated. Inconclusive results are not listed.
System: MX-1 breast xenograft, intrarenal, nude mice, tumor weight
Assay: NCI In Vivo Anticancer Drug Screen. Data for tumor model Human Mammary Carcinoma MX-1 Xenograft (intrarenal inoculation) in NU/NU BALB/C (nude) mice
Conditions: endpoint: mean tumor weight change, higher = larger tumour
Outline: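 Compounds were given to mice carrying transplanted tumors, and tumor size or survival was measured. Each value is the treated-group measurement (T) divided by the vehicle-treated control-group measurement (C).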

[1] = dose: 300.0 mg/kg/injection, schedule: Q04DX003 (sc), vehicle: saline with Tween-80
[2] = dose: 600.0 mg/kg/injection, schedule: Q04DX003 (sc), vehicle: saline with Tween-80
[3] = dose: 1200.0 mg/kg/injection, schedule: Q04DX003 (sc), vehicle: saline with Tween-80
[4] = dose: 2400.0 mg/kg/injection, schedule: Q04DX003 (sc), vehicle: saline with Tween-80
[5] = dose: 100.0 mg/kg/injection, schedule: Q04DX003 (ip), vehicle: saline with Tween-80
[6] = dose: 200.0 mg/kg/injection, schedule: Q04DX003 (ip), vehicle: saline with Tween-80

In the case of `COc1ccc2[nH]c3ccc4cc[n+](CCN5CCC(C6CCN(CC[n+]7ccc8ccc9[nH]c%10ccc(OC)cc%10c9c8c7)CC6)CC5)cc4c3c2c1`, the T/C (dose: 4.0 mg/kg/injection, schedule: Q04DX003 (ip), vehicle: water) is reported as 100 % of control, the T/C (dose: 8.0 mg/kg/injection, schedule: Q04DX003 (ip), vehicle: other) is reported as 69 % of control and the T/C (dose: 8.0 mg/kg/injection, schedule: Q04DX003 (ip), vehicle: water) is reported as 38 % of control. For the same compound, the T/C (dose: 16.0 mg/kg/injection, schedule: Q04DX003 (ip), vehicle: other) was 92 % of control, the T/C (dose: 16.0 mg/kg/injection, schedule: Q04DX003 (ip), vehicle: water) was 35 % of control and the T/C (dose: 23.04 mg/kg/injection, schedule: Q04DX003 (ip), vehicle: other) was 101 % of control. The T/C (dose: 32.0 mg/kg/injection, schedule: Q04DX003 (ip), vehicle: other) was 86 % of control, the T/C (dose: 32.0 mg/kg/injection, schedule: Q04DX003 (ip), vehicle: water) was 35 % of control and the T/C (dose: 38.4 mg/kg/injection, schedule: Q04DX003 (ip), vehicle: other) was 53 % of control. The T/C (dose: 64.0 mg/kg/injection, schedule: Q04DX003 (ip), vehicle: other) was 32 % of control and 42 % of control and the T/C (dose: 64.0 mg/kg/injection, schedule: Q04DX003 (ip), vehicle: water) was 8 % of control.
In the case of `CO[C@@]12[C@@H]3N[C@@H]3CN1C1=C(C(=O)C(N3CCCC3)=C(C)C1=O)[C@@H]2COC(N)=O`, the T/C (dose: 1.5 mg/kg/injection, schedule: Q04DX003 (ip), vehicle: saline with Tween-80) is reported as 6 % of control and 12 % of control and the T/C (dose: 12.0 mg/kg/injection, schedule: Q04DX003 (ip), vehicle: saline with Tween-80) is reported as -98 % of control.
For `[Na+]`, the T/C (dose: 150.0 mg/kg/injection, schedule: Q04DX003 (ip), vehicle: water) was 66 % of control, the T/C (dose: 600.0 mg/kg/injection, schedule: Q04DX003 (ip), vehicle: water) was 84 % of control and the T/C (dose: 1200.0 mg/kg/injection, schedule: Q04DX003 (ip), vehicle: water) was 97 % of control.
In the case of `C/C=C(\C)c1cc(=O)c2c(C)cc3c(c2o1)C(=O)c1c(O)c(C2CC(C)(N(C)C)C(OC(C)=O)C(C)O2)cc(C2CC(N(C)C)C(O)C(C)O2)c1C3=O` (stereo not given), the T/C (dose: 2.5 mg/kg/injection, schedule: Q04DX003 (sc), vehicle: saline) is reported as 91 % of control and the T/C (dose: 40.0 mg/kg/injection, schedule: Q04DX003 (sc), vehicle: saline) is reported as 39 % of control and 43 % of control.
In the case of `CC(=O)Oc1[nH]c(=O)c2cccc3c2c1CCC3`, the T/C [1] is reported as 107 % of control, the T/C [2] is reported as 93 % of control and the T/C [3] is reported as 118 % of control. The T/C [4] was 89 % of control.
`COc1cc(Cc2nccc3cc(OC)c(OC)cc23)c(C(C)=O)cc1OC` was tested, and the T/C (dose: 300.0 mg/kg/injection, schedule: Q04DX003 (sc), vehicle: saline) was 54 % of control, the T/C (dose: 600.0 mg/kg/injection, schedule: Q04DX003 (sc), vehicle: saline) was 68 % of control and the T/C (dose: 1200.0 mg/kg/injection, schedule: Q04DX003 (sc), vehicle: saline) was 48 % of control.
In the case of `Cc1ccc(C(=O)NC2C(=O)NC(C(C)C)C(=O)N3CCCC3C(=O)N(C)CC(=O)N(C)C(C(C)C)C(=O)OC2C)c2c1Oc1c(c(C(=O)NC3C(=O)NC(C(C)C)C(=O)N4CCCC4C(=O)N(C)CC(=O)N(C)C(C(C)C)C(=O)OC3C)c3nc(-c4ccccc4)c(=O)oc3c1C)N2` (stereo not given), the T/C (dose: 1.0 mg/kg/injection, schedule: Q04DX003 (ip), vehicle: water) is reported as 16 % of control and 26 % of control and the T/C (dose: 2.0 mg/kg/injection, schedule: Q04DX003 (ip), vehicle: water) is reported as 5 % of control.
In the case of `CCN(CC)CCC(=O)OC(C(=O)O[C@H]1C[C@@]2(O)C(OC(=O)c3ccccc3)C3C4(OC(C)=O)COC4C[C@H](O)[C@@]3(C)C(=O)[C@H](OC(C)=O)C(=C1C)C2(C)C)C(NC(=O)c1ccccc1)c1ccccc1` (stereo not given in full), the T/C (dose: 4.5 mg/kg/injection, schedule: Q01DX009 (ip), vehicle: water) is reported as -100 % of control, the T/C (dose: 9.0 mg/kg/injection, schedule: Q01DX009 (ip), vehicle: water) is reported as -100 % of control and the T/C (dose: 18.0 mg/kg/injection, schedule: Q01DX009 (ip), vehicle: water) is reported as -100 % of control.
For `CCOC(=O)C1=C(C)O/C(=C/c2cccc(Cl)c2)C1=O`, the T/C (dose: 150.0 mg/kg/injection, schedule: Q04DX003 (ip), vehicle: saline with Tween-80) was 62 % of control.
For `Nc1nc2c(ncn2C2OC(CO)C(O)C2O)c(=O)[nH]1` (stereo not given), the T/C [1] was 84 % of control, the T/C [2] was 81 % of control and the T/C [3] was 82 % of control. For the same compound, the T/C [4] was 88 % of control.
In the case of `Cc1nc2c(N)cc(Cl)cc2[nH]1`, the T/C [5] is reported as 95 % of control and the T/C [6] is reported as 45 % of control.
For `CC(O)CCC(=O)c1ccoc1` (stereo not given), the T/C (dose: 3.75 mg/kg/injection, schedule: Q01DX010 (ip), vehicle: saline) was 191 % of control, the T/C (dose: 7.5 mg/kg/injection, schedule: Q01DX010 (ip), vehicle: saline) was 95 % of control and 120 % of control and the T/C (dose: 60.0 mg/kg/injection, schedule: Q01DX010 (ip), vehicle: saline) was 49 % of control.
For `CC[C@@]1(O)C(=O)OCc2c1cc1n(c2=O)Cc2cc3ccccc3nc2-1`, the T/C (dose: 10.0 mg/kg/injection, schedule: Q04DX003 (sc), vehicle: saline with Tween-80) was -84 % of control and -100 % of control, the T/C (dose: 20.0 mg/kg/injection, schedule: Q04DX003 (sc), vehicle: saline with Tween-80) was -100 % of control and -95 % of control and the T/C (dose: 40.0 mg/kg/injection, schedule: Q04DX003 (sc), vehicle: saline with Tween-80) was -100 % of control.
For `ClCC[N+]12CC[N+](CCCl)(CC1)C2`, the T/C (dose: 75.0 mg/kg/injection, schedule: Q04DX003 (sc), vehicle: water) was 34 % of control, the T/C (dose: 100.0 mg/kg/injection, schedule: Q01DX010 (sc), vehicle: saline with Tween-80) was 23 % of control and 27 % of control and the T/C (dose: 150.0 mg/kg/injection, schedule: Q04DX003 (sc), vehicle: water) was 18 % of control. The T/C (dose: 200.0 mg/kg/injection, schedule: Q01DX010 (sc), vehicle: saline with Tween-80) was 16 % of control and 19 % of control and the T/C (dose: 300.0 mg/kg/injection, schedule: Q04DX003 (sc), vehicle: water) was 3 % of control.
With `CN(N=O)C(=O)N[C@@H](C=O)[C@@H](O)[C@H](O)[C@H](O)CO` the T/C (dose: 37.0 mg/kg/injection, schedule: Q04DX003 (ip), vehicle: other) was 193 % of control, the T/C (dose: 75.0 mg/kg/injection, schedule: Q04DX003 (ip), vehicle: other) was 117 % of control and the T/C (dose: 150.0 mg/kg/injection, schedule: Q04DX003 (ip), vehicle: other) was 70 % of control. For the same compound, the T/C (dose: 150.0 mg/kg/injection, schedule: Q04DX003 (sc), vehicle: saline) was 63 % of control.
In the case of `O=C1c2ccccc2C(=O)c2c1cn1c2Cc2ccccc2C1`, the T/C (dose: 50.0 mg/kg/injection, schedule: Q04DX003 (ip), vehicle: Klucel (hydroxypropylcellulose) (HPC)) is reported as 72 % of control, the T/C (dose: 100.0 mg/kg/injection, schedule: Q04DX003 (ip), vehicle: Klucel (hydroxypropylcellulose) (HPC)) is reported as 37 % of control and the T/C (dose: 200.0 mg/kg/injection, schedule: Q04DX003 (ip), vehicle: Klucel (hydroxypropylcellulose) (HPC)) is reported as 26 % of control. The T/C (dose: 400.0 mg/kg/injection, schedule: Q04DX003 (ip), vehicle: Klucel (hydroxypropylcellulose) (HPC)) was 35 % of control.
In the case of `c1ccc2[nH]c(CN(CCN(Cc3nc4ccccc4[nH]3)Cc3nc4ccccc4[nH]3)Cc3nc4ccccc4[nH]3)nc2c1`, the T/C (dose: 6.25 mg/kg/injection, schedule: Q04DX003 (ip), vehicle: DMSO) is reported as 59 % of control and 68 % of control and the T/C (dose: 50.0 mg/kg/injection, schedule: Q04DX003 (ip), vehicle: DMSO) is reported as 62 % of control.
For `OC1(CSc2ccccc2)CCCCC1`, the T/C [1] was 98 % of control and the T/C [2] was 112 % of control.
`COc1ccc2c(c1)n([O-])c1ccccc1[n+]2=O` was tested, and the T/C (dose: 50.0 mg/kg/injection, schedule: Q04DX003 (ip), vehicle: saline with Tween-80) was 40 % of control, the T/C [5] was 48 % of control and the T/C [6] was 36 % of control.
With `O=c1[nH]cc(F)c(=O)[nH]1` the T/C (dose: 50.0 mg/kg/injection, schedule: Q04DX003 (ip), vehicle: saline) was 43 % of control.
With `COC(=Nc1ccccc1)SSC(C)C` the T/C [1] was 90 % of control and the T/C [2] was 99 % of control.
For `COc1cc2c(c(OC)c1OC)-c1ccc(OC)c(=O)cc1[C@@H](NC(C)=O)CC2`, the T/C (dose: 0.5 mg/kg/injection, schedule: Q04DX003 (ip), vehicle: saline) was 41 % of control and 48 % of control and the T/C (dose: 1.0 mg/kg/injection, schedule: Q04DX003 (ip), vehicle: saline) was 17 % of control and 20 % of control.
`Cc1c(O)/c(=C\O)c2nc3c(=O)ccc(C(=O)NCCN(C)C)c3[nH]c2c1=O` was tested, and the T/C (dose: 50.0 mg/kg/injection, schedule: Q04DX003 (ip), vehicle: other) was 77 % of control, the T/C (dose: 100.0 mg/kg/injection, schedule: Q04DX003 (ip), vehicle: other) was 100 % of control and the T/C (dose: 200.0 mg/kg/injection, schedule: Q04DX003 (ip), vehicle: other) was 44 % of control.
In the case of `C[C@]12CC[C@H](O)CC1=CC[C@@H]1[C@@H]2CC[C@]2(C)C(=O)CC[C@@H]12`, the T/C [1] is reported as 77 % of control, the T/C [2] is reported as 76 % of control and the T/C [3] is reported as 63 % of control. For the same compound, the T/C [4] was 68 % of control.

From PubChem BioAssay AID298 (DTP/NCI, 2004)
